Source: US10781224B2, “Bis(oxymethyl)phosphinic acid and biogenic metal salts thereof as regulators of plant growth and development” (priority 2016, dated 2020)

Assays:
Assay type in all cases: in vivo
rice (Diamant variety) = test: Rice seed treatment with BHMPA salts: germination energy and germination rate
Procedure: (§1) Control—Soaking Seeds in Water;
(§2) Experimental versions—soaking seeds in BHMPA solutions and solutions of BHMPA Ca, Mg, Na, Co, Mn, Cu, and Zn salts at 1·10^−6-1·10^−12% concentrations (doses). The studies were conducted in laboratory in Petri dishes; seed bed—two layers of filter paper. 50 seeds soaked in water (control) and in the solutions of the tested compounds (experimental) were placed into each dish. Wheat, corn, and rice seeds were exposed for one hour.
(§3) Analysis was conducted according to the government standards GOST 12038-84 “Crop seeds. Technical conditions for determining the germination energy and germination rate”, GOST 12044-93 “Crop seeds. Methods for determining disease contamination.”
(§4) Seed germination energy and rate were calculated in percent as an arithmetic mean of the four experimental results (germination energy on the 4th day, wheat germination on the 8th day, rice and corn germination—on the 7th day). Germination was determined based on the germinating power indicators (length of the roots and sprouts and their wet and dry mass per 100 shoots).
(§5) The effect of pre-sowing seed treatment with the claimed BHMPA salts of biogenic metals was studied on winter wheat (Vershin variety), corn (Krasnodar 385 MV variety), and rice (Diamant variety).

[1] = test system: winter wheat (Vershin variety); test: Winter wheat seed treatment with BHMPA salts: germinating power (length and mass of roots and sprouts)
Procedure: as §2, §4, §5
The above data describe the seed viability only at the initial stage of germination, while the germination ability at the later stage of germination is defined by the initial germinating power. The method for the determination of the germinating power comprises measuring the height of the sprouts and primary roots, as well as the biomass and the dry mass thereof per 100 seedlings. [M. A. Kartuzova. Initial Germinating Power as Method of Biological Assessment of Seed Quality. Selection and Seed Farming, #2, 1953].

[2] = test system: corn (Krasnodar 385 MV variety); test: Corn seed treatment with BHMPA salts: germination energy and germination rate
Procedure: as §1, §2, §3, §4, §5

[3] = rice seed treatment, solution 1 · 10^−9%
[4] = seed treatment, concentration 1 · 10^−6%
[5] = seed treatment, concentration 1 · 10^−7%
[6] = seed treatment, concentration 1 · 10^−8%
[7] = seed treatment, concentration 1 · 10^−9%
[8] = seed treatment, concentration 1 · 10^−10%
[9] = seed treatment, concentration 1 · 10^−11%
[10] = seed treatment, concentration 1 · 10^−12%
[11] = all the experiments (1·10^−6% to 1·10^−12%)
[12] = comparative study, 1·10^−12% solution
[13] = comparative study vs Melaphen, 1·10^−10% solution

O=P([O-])(CO)CO.O=P([O-])(CO)CO.[Ca+2] [Ca-salt, Calcium BHMPA Salt]
Germination energy, % (rice (Diamant variety); [3]): 86.3% | Germination rate, % (rice (Diamant variety); [3]): 93.3% | Germination energy (rice (Diamant variety); rice, 1·10^−10% solution): 85.0% | Germination rate (rice (Diamant variety); rice, 1·10^−10% solution): 92.0% | Germination energy (rice (Diamant variety); [4]): 75.9% | Germination rate (rice (Diamant variety); [4]): 81.0% | Germination energy (rice (Diamant variety); [5]): 76.0% | Germination rate (rice (Diamant variety); [5]): 83.3% | Germination energy (rice (Diamant variety); [6]): 79.3% | Germination rate (rice (Diamant variety); [6]): 85.0% | Germination energy (rice (Diamant variety); [7]): 82.0% | Germination rate (rice (Diamant variety); [7]): 87.0% | Germination energy (rice (Diamant variety); [8]): 85.0% | Germination rate (rice (Diamant variety); [8]): 92.0% | Germination energy (rice (Diamant variety); [9]): 83.3% | Germination rate (rice (Diamant variety); [9]): 89.3% | Germination energy (rice (Diamant variety); [10]): 78.3% | Germination rate (rice (Diamant variety); [10]): 84.3% | Length, root ([1]; 1·10^−6% solution): 7.1 cm | Length, root, + % to control ([1]; 1·10^−6% solution): 27% | Length, sprout ([1]; 1·10^−6% solution): 6.9 cm | Length, sprout, + % to control ([1]; 1·10^−6% solution): 19% | Mass, dry, root ([1]; 1·10^−6% solution): 0.45 g/100 plantlings | Mass, dry, root, + % to control ([1]; 1·10^−6% solution): 41% | Mass, dry, sprout ([1]; 1·10^−6% solution): 0.47 g/100 plantlings | Mass, dry, sprout, + % to control ([1]; 1·10^−6% solution): 9% | Mass, wet, root ([1]; 1·10^−6% solution): 4.16 g/100 plantlings | Mass, wet, root, + % to control ([1]; 1·10^−6% solution): 12% | Mass, wet, sprout ([1]; 1·10^−6% solution): 5.32 g/100 plantlings | Mass, wet, sprout, + % to control ([1]; 1·10^−6% solution): 5% | Length, root ([1]; 1·10^−7% solution): 7.4 cm | Length, root, + % to control ([1]; 1·10^−7% solution): 34% | Length, sprout ([1]; 1·10^−7% solution): 7.4 cm | Mass, dry, root ([1]; 1·10^−7% solution): 0.47 g/100 plantlings | Mass, dry, root, + % to control ([1]; 1·10^−7% solution): 47% | Mass, dry, sprout ([1]; 1·10^−7% solution): 0.55 g/100 plantlings | Mass, dry, sprout, + % to control ([1]; 1·10^−7% solution): 30% | Mass, wet, root ([1]; 1·10^−7% solution): 4.89 g/100 plantlings | Mass, wet, root, + % to control ([1]; 1·10^−7% solution): 32% | Mass, wet, sprout ([1]; 1·10^−7% solution): 5.57 g/100 plantlings | Mass, wet, sprout, + % to control ([1]; 1·10^−7% solution): 10% | Length, root ([1]; 1·10^−8% solution): 6.5 cm | Length, root, + % to control ([1]; 1·10^−8% solution): 18% | Length, sprout ([1]; 1·10^−8% solution): 6.4 cm | Length, sprout, + % to control ([1]; 1·10^−8% solution): 10% | Mass, dry, root ([1]; 1·10^−8% solution): 0.39 g/100 plantlings | Mass, dry, root, + % to control ([1]; 1·10^−8% solution): 22% | Mass, dry, sprout ([1]; 1·10^−8% solution): 0.45 g/100 plantlings | Mass, dry, sprout, + % to control ([1]; 1·10^−8% solution): 5% | Mass, wet, root ([1]; 1·10^−8% solution): 4.08 g/100 plantlings | Mass, wet, root, + % to control ([1]; 1·10^−8% solution): 10% | Mass, wet, sprout ([1]; 1·10^−8% solution): 5.32 g/100 plantlings | Mass, wet, sprout, + % to control ([1]; 1·10^−8% solution): 5% | Length, root ([1]; 1·10^−9% solution): 6.5 cm | Length, root, + % to control ([1]; 1·10^−9% solution): 18% | Length, sprout ([1]; 1·10^−9% solution): 6.5 cm | Length, sprout, + % to control ([1]; 1·10^−9% solution): 12% | Mass, dry, root ([1]; 1·10^−9% solution): 0.41 g/100 plantlings | Mass, dry, root, + % to control ([1]; 1·10^−9% solution): 28% | Mass, dry, sprout ([1]; 1·10^−9% solution): 0.48 g/100 plantlings | Mass, dry, sprout, + % to control ([1]; 1·10^−9% solution): 12% | Mass, wet, root ([1]; 1·10^−9% solution): 4.20 g/100 plantlings | Mass, wet, root, + % to control ([1]; 1·10^−9% solution): 13% | Mass, wet, sprout ([1]; 1·10^−9% solution): 5.36 g/100 plantlings | Mass, wet, sprout, + % to control ([1]; 1·10^−9% solution): 5.5% | Length, root ([1]; 1·10^−10% solution): 6.6 cm | Length, root, + % to control ([1]; 1·10^−10% solution): 20% | Length, sprout ([1]; 1·10^−10% solution): 6.5 cm | Length, sprout, + % to control ([1]; 1·10^−10% solution): 12% | Mass, dry, root ([1]; 1·10^−10% solution): 0.45 g/100 plantlings | Mass, dry, root, + % to control ([1]; 1·10^−10% solution): 41% | Mass, dry, sprout ([1]; 1·10^−10% solution): 0.53 g/100 plantlings | Mass, dry, sprout, + % to control ([1]; 1·10^−10% solution): 23% | Mass, wet, root ([1]; 1·10^−10% solution): 4.34 g/100 plantlings | Mass, wet, root, + % to control ([1]; 1·10^−10% solution): 17% | Mass, wet, sprout ([1]; 1·10^−10% solution): 5.41 g/100 plantlings | Mass, wet, sprout, + % to control ([1]; 1·10^−10% solution): 6.5% | Length, root ([1]; 1·10^−11% solution): 7.2 cm | Length, root, + % to control ([1]; 1·10^−11% solution): 31% | Length, sprout ([1]; 1·10^−11% solution): 6.9 cm | Length, sprout, + % to control ([1]; 1·10^−11% solution): 19% | Mass, dry, root ([1]; 1·10^−11% solution): 0.46 g/100 plantlings | Mass, dry, root, + % to control ([1]; 1·10^−11% solution): 44% | Mass, dry, sprout ([1]; 1·10^−11% solution): 0.54 g/100 plantlings | Mass, dry, sprout, + % to control ([1]; 1·10^−11% solution): 25.5% | Mass, wet, root ([1]; 1·10^−11% solution): 4.70 g/100 plantlings | Mass, wet, root, + % to control ([1]; 1·10^−11% solution): 27% | Mass, wet, sprout ([1]; 1·10^−11% solution): 5.50 g/100 plantlings | Mass, wet, sprout, + % to control ([1]; 1·10^−11% solution): 8% | Length, root ([1]; 1·10^−12% solution): 7.4 cm | Length, root, + % to control ([1]; 1·10^−12% solution): 34% | Length, sprout ([1]; 1·10^−12% solution): 7.9 cm | Length, sprout, + % to control ([1]; 1·10^−12% solution): 36% | Mass, dry, root ([1]; 1·10^−12% solution): 0.48 g/100 plantlings | Mass, dry, root, + % to control ([1]; 1·10^−12% solution): 50% | Mass, dry, sprout ([1]; 1·10^−12% solution): 0.59 g/100 plantlings | Mass, dry, sprout, + % to control ([1]; 1·10^−12% solution): 37% | Mass, wet, root ([1]; 1·10^−12% solution): 5.19 g/100 plantlings | Mass, wet, root, + % to control ([1]; 1·10^−12% solution): 40% | Mass, wet, sprout ([1]; 1·10^−12% solution): 6.55 g/100 plantlings | Mass, wet, sprout, + % to control ([1]; 1·10^−12% solution): 29% | increase in mass of sprouts [1, 11]: 5%-50% | increase in size of sprouts [1, 11]: 10%-36% | Length, root [1, 12]: 9.7 cm | Length, root, + % to control [1, 12]: 11% | Length, sprout [1, 12]: 6.4 cm | Length, sprout, + % to control [1, 12]: 3% | Mass, dry, root [1, 12]: 0.66 g/100 plantlings | Mass, dry, root, + % to control [1, 12]: 6% | Mass, dry, sprout [1, 12]: 0.54 g/100 plantlings | Mass, dry, sprout, + % to control [1, 12]: 6% | Mass, wet, root [1, 12]: 5.03 g/100 plantlings | Mass, wet, root, + % to control [1, 12]: 40% | Mass, wet, sprout [1, 12]: 4.88 g/100 plantlings | Mass, wet, sprout, + % to control [1, 12]: 23% | Germination energy ([2]; 1·10^−6% solution): 74.3% | Germination rate ([2]; 1·10^−6% solution): 77.0% | Germination energy ([2]; 1·10^−7% solution): 77.3% | Germination rate ([2]; 1·10^−7% solution): 82.0% | Germination energy ([2]; 1·10^−8% solution): 81.8% | Germination rate ([2]; 1·10^−8% solution): 84.2% | Germination energy ([2]; 1·10^−9% solution): 85.0% | Germination rate ([2]; 1·10^−9% solution): 87.7% | Germination energy ([2]; 1·10^−10% solution): 87.8% | Germination rate ([2]; 1·10^−10% solution): 90.0% | Germination energy ([2]; 1·10^−11% solution): 85.5% | Germination rate ([2]; 1·10^−11% solution): 88.3% | Germination energy ([2]; 1·10^−12% solution): 82.3% | Germination rate ([2]; 1·10^−12% solution): 85.0% | Germination energy [2, 13]: 85.0% | Germination rate [2, 13]: 95.3%
